A short description of data set [1]: Unbound tissue partition coefficient, ratio of drug level in skeletal muscle to plasma in Wistar Han rat at 1 to 2 mg/kg, iv infused for 10 to 20 hrs by LC-MS/MS analysis. The following applies: skeletal muscle/plasma.
The nature of data set [2]: Drug concentration in total skeletal muscle in Wistar Han rat at 1 to 2 mg/kg, iv infused for 10 to 20 hrs by LC-MS/MS analysis. The following applies: in vivo.
The nature of data set [3]: Unbound tissue partition coefficient, ratio of drug level in liver to plasma in Wistar Han rat at 1 to 2 mg/kg, iv infused for 10 to 20 hrs by LC-MS/MS analysis. The conditions noted are these: liver/plasma.
A short description of data set [4]: Drug concentration in total heart in Wistar Han rat at 1 to 2 mg/kg, iv infused for 10 to 20 hrs by LC-MS/MS analysis. The conditions noted are these: in vivo.
Data set [5] in a line: Fraction unbound in Wistar Han rat brain at 2 uM incubated for 6 hrs by equilibrium dialysis method. (In general: In equilibrium dialysis free small molecules cross a membrane that holds back macromolecules.)
Data set [6] can be described thus: Apparent permeability of the compound across dog RRCK cells by MDCK-LE assay.
The nature of data set [7]: Drug concentration in total liver in Wistar Han rat at 1 to 2 mg/kg, iv infused for 10 to 20 hrs by LC-MS/MS analysis. The conditions noted are these: in vivo.
Data set [8] can be described thus: Fraction unbound in Wistar Han rat liver at 2 uM incubated for 6 hrs by equilibrium dialysis method.
The nature of data set [9]: Total plasma concentration in Wistar Han rat at 1 to 2 mg/kg, iv infused for 10 to 20 hrs by LC-MS/MS analysis. The conditions noted are these: in vivo.
A short description of data set [10]: Fraction unbound in Wistar Han rat heart at 2 uM incubated for 6 hrs by equilibrium dialysis method.
The nature of data set [11]: Unbound tissue partition coefficient, ratio of drug level in heart to plasma in Wistar Han rat at 1 to 2 mg/kg, iv infused for 10 to 20 hrs by LC-MS/MS analysis. The conditions noted are these: heart/plasma.
Data set [12] in a line: Fraction unbound in Wistar Han rat plasma at 2 uM incubated for 6 hrs by equilibrium dialysis method.
The nature of data set [13]: Drug concentration in total white adipose tissue in Wistar Han rat at 1 to 2 mg/kg, iv infused for 10 to 20 hrs by LC-MS/MS analysis. The following applies: in vivo.
Data set [14] can be described thus: Fraction unbound in Wistar Han rat white adipose tissue at 2 uM incubated for 6 hrs by equilibrium dialysis method.
Data set [15] in a line: Fraction unbound in Wistar Han rat skeletal muscle at 2 uM incubated for 6 hrs by equilibrium dialysis method.
Data set [16] can be described thus: Unbound tissue partition coefficient, ratio of drug level in brain to plasma in Wistar Han rat at 1 to 2 mg/kg, iv infused for 10 to 20 hrs by LC-MS/MS analysis. The following applies: brain/plasma.
Data set [17] can be described thus: Unbound tissue partition coefficient, ratio of drug level in adipose to plasma in Wistar Han rat at 1 to 2 mg/kg, iv infused for 10 to 20 hrs by LC-MS/MS analysis. The following applies: adipose/plasma.
A short description of data set [18]: Drug concentration in total brain in Wistar Han rat at 1 to 2 mg/kg, iv infused for 10 to 20 hrs by LC-MS/MS analysis. The following applies: in vivo.

In general, fraction unbound refers to the share of the substance not bound to proteins or other matrix. Low values mean little free substance, high ones much free substance. By Papp is commonly meant a coefficient for how fast a substance crosses the barrier. Take `COc1ccc2ncc(F)c([C@@H](O)CC[C@@H]3CCN(CCSc4cccs4)C[C@@H]3C(=O)O)c2c1`: the Kp uu in [1] stood at 0.29; in data set [3] it was 4.5; in [11], 0.75; in data set [16] it was 0.0032; in [17], 0.26. The Ct worked out at 33 ng/mL in [2]; 77 ng/mL in data set [4]; 350 ng/mL in data set [7]; 5.4 ng/mL in [13]; 0.69 ng/mL in data set [18]. The fraction unbound at 6 h, 2 µM in [5] worked out at 0.0945; in data set [8] it was 0.191; in data set [10], 0.15; in [12], 0.19; in data set [14] it was 0.672; in data set [15] it was 0.132. The Papp in [6] came to 9.8 ×10⁻⁶ cm/s. In data set [9], this compound had a Cp of 79 ng/mL.
Take `Oc1noc2cc(Cl)c(Cl)cc12`: the Kp uu in [1] was 1.2; in data set [3], 0.22; in [11], 10; in data set [16], 1.1; in data set [17], 9.7. The Ct in [2] was determined as 17 ng/mL; in [4], 180 ng/mL; in data set [7], 4.7 ng/mL; in data set [13], 29 ng/mL; in [18] it was 24 ng/mL. The fraction unbound at 6 h, 2 µM in [5] amounted to 0.103; in [8] it was 0.105; in data set [10], 0.13; in data set [12] it was 0.00445; in data set [14], 0.714; in data set [15], 0.153. Also, the apparent permeability (Papp) in data set [6] came to 29 ×10⁻⁶ cm/s. The Cp in data set [9] was found to be 500 ng/mL.
On to `Cn1ncc(-c2ccc(C(=O)N(c3ncccc3Cl)[C@@H]3CCCNC3)cc2)c1C(=O)O`, for which the Kp uu was 0.1 in [1]; 5 in [3]; 5.3 in data set [11]; 0.16 in [16]; 0.21 in data set [17]. Further, the Ct in data set [2] came out at 7.4 ng/mL; in [4], 210 ng/mL; in [7], 630 ng/mL; in [13], 5.4 ng/mL; in data set [18], 6.8 ng/mL. For the same compound, the fraction unbound at 6 h, 2 µM in data set [5] came to 1; in data set [8], 0.287; in data set [10], 1; in [12], 0.692; in data set [14], 0.736; in data set [15] it was 0.595. Also, in data set [6], the Papp was 0.51 ×10⁻⁶ cm/s. This compound also registered a Cp in data set [9] of 55 ng/mL.
Regarding `O=C(O)[C@@H]1CCN(C(=O)n2cnc(-c3ccc(-c4cnc(N5CCOCC5)nc4)cc3)n2)[C@@H](c2ccccc2)C1`, the Kp uu in data set [1] amounted to 1.1; in data set [3] it was 0.037; in [11], 4.2; in data set [16] it was 0.0018; in [17], 0.024. Besides, the Ct was 20 ng/mL in [2]; 80 ng/mL in data set [4]; 1.5 ng/mL in [7]; 0.77 ng/mL in data set [13]; 0.38 ng/mL in data set [18]. Besides, the fraction unbound at 6 h, 2 µM in [5] is 0.00874; in [8] it was 0.00824; in data set [10], 0.0159; in data set [12] it was 0.00353; in data set [14], 0.165; in [15] it was 0.017. Further, the Papp in data set [6] amounted to 17 ×10⁻⁶ cm/s. Besides, the Cp in data set [9] came to 88 ng/mL.
Take `CC(C)(O)CS(=O)(=O)c1ccc2c(c1)nc(C(C)(C)C)n2CC1CCOCC1`: the Kp uu in data set [1] is 0.48; in data set [3] it was 5.4; in data set [11], 1.1; in [16], 0.13; in [17] it was 1.7. Also, the Ct in [2] worked out at 60 ng/mL; in data set [4] it was 91 ng/mL; in data set [7], 320 ng/mL; in data set [13] it was 55 ng/mL; in [18] it was 6.2 ng/mL. The fraction unbound at 6 h, 2 µM in data set [5] came to 0.538; in data set [8] it was 0.437; in [10] it was 0.321; in data set [12] it was 0.469; in data set [14], 0.786; in data set [15] it was 0.203. The Papp in data set [6] turned out to be 28 ×10⁻⁶ cm/s. The Cp in data set [9] amounted to 55 ng/mL.
Turning to `O=C(NC(c1ccccc1)c1ccccc1)C1CC1`, the Kp uu in data set [1] is 0.68; in data set [3], 5.4; in data set [11] it was 4.7; in [16], 3.2; in data set [17], 3.9. Moreover, the Ct in data set [2] was 40 ng/mL; in data set [4], 230 ng/mL; in [7], 230 ng/mL; in [13] it was 880 ng/mL; in data set [18] it was 200 ng/mL. Further, the fraction unbound at 6 h, 2 µM in data set [5] amounted to 0.079; in [8] it was 0.12; in data set [10] it was 0.1; in [12] it was 0.0667; in data set [14], 0.0208; in [15], 0.0833. Also, the Papp in data set [6] came out at 35 ×10⁻⁶ cm/s. The same compound had a Cp in data set [9] of 79 ng/mL.
Take `Cc1ccc(CC(C)(C)NC[C@@H](O)CO[C@H](C)c2ccccc2-c2ccc(C(=O)O)c(C)c2)cc1F`: the Kp uu was found to be 0.85 in [1]; 7.1 in data set [3]; 1.8 in data set [11]; 0.0018 in data set [16]; 2.5 in data set [17]. In addition, the Ct was determined as 17 ng/mL in data set [2]; 56 ng/mL in [4]; 220 ng/mL in data set [7]; 8 ng/mL in data set [13]; 0.38 ng/mL in data set [18]. Besides, the free fraction (fraction unbound) at 6 h, 2 µM came to 0.0111 in data set [5]; 0.0134 in [8]; 0.0129 in [10]; 0.00353 in [12]; 0.126 in data set [14]; 0.021 in data set [15]. Besides, the Papp in data set [6] stood at 4.4 ×10⁻⁶ cm/s. Also, the Cp in data set [9] came to 120 ng/mL.
With `Cc1nc2cc(-c3cc(F)cc(C#N)c3)ccc2s1`, the Kp uu came to 0.6 in data set [1]; 20 in [3]; 3.3 in data set [11]; 1.5 in data set [16]; 2.6 in data set [17]. The Ct stood at 25 ng/mL in [2]; 66 ng/mL in data set [4]; 480 ng/mL in data set [7]; 570 ng/mL in data set [13]; 73 ng/mL in data set [18]. Also, the fraction unbound at 6 h, 2 µM in [5] stood at 0.00394; in [8], 0.00815; in [10], 0.0101; in data set [12], 0.00655; in data set [14], 0.000864; in data set [15], 0.0047. In data set [6], the Papp is 34 ×10⁻⁶ cm/s. The compound also returned a Cp in data set [9] of 31 ng/mL.

Values taken from ChEMBL document CHEMBL4373746, “Structural attributes influencing unbound tissue distribution” (Eur J Med Chem, 2020).
